Test results published in patent US20020119506A1, “Genes encoding UMP kinase, methods for purifying UMP kinase and methods of characterizing UMP kinase” (INSTITUT PASTEUR, priority 2000, published 2002).
“Also recorded” adds a separate entry of the source. Read-outs that look alike come from different tables or passages of the source.

What was measured:
[1] = target: T1, UMP kinase from B. subtilis (Bacillus subtilis, UniProt O31749); assay: UMP kinase activity, coupled spectrophotometric assay; format: biochemical
T1 sequence (O31749 1-240): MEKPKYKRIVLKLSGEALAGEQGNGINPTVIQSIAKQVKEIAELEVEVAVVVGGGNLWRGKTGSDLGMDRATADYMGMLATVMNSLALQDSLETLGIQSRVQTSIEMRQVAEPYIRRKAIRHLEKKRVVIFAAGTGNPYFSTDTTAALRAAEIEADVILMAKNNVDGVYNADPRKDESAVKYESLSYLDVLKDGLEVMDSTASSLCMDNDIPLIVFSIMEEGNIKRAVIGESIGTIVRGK
Description: Purification of UMP kinase and activity assays. E. coli overproducing the UMP kinase from B. subtilis was disrupted by sonication in 50 mM Tris-HCl (pH 7.4) and 2 mM UTP. The bacterial extract was heated for 10 min at 65° C., then the precipitated proteins were removed by centrifugation at 10,000 g for 30 min. The supernatant was concentrated by ultrafiltration to about 10 mg of protein/ml, then applied to a Sephacryl S-300 HR column (2.5×110 cm) equilibrated with 50 mM Tris-HCl (pH 7.4), 0.1 M NaCl and 2 mM UTP at a flow rate of 10 ml/h. […] Fractions of 1 ml of protein solution were sampled in Eppendorf tubes and stored at different temperatures between 20° C. and −80° C. The UMP kinase activity was determined at 30° C. using a coupled spectrophotometric assay (0.5 ml final volume) on an Eppendorf PCP6121 photometer [Blondin, 1994 #977]. The “standard” reaction medium contained 50 mM Tris-HCl (pH 7.4), 50 mM KCl, 2 mM MgCl2, 1 mM phosphoenolpyruvate, 0.2 mM NADH, 2 mM ATP, 0.5 mM GTP and 2 units each of lactate dehydrogenase, pyruvate kinase and NDP kinase. The crude or pure preparation of UMP kinase was then added, followed two minutes later by 1.3 mM UMP. The decrease in absorbance at 334 nm (between 0.03 and 0.3/min) was then recorded and corrected for secondary reactions, occurring in the absence of UMP. One unit of UMP kinase corresponds to 1 μmol of product formed per min.
The UMP kinase activity was determined at 30° C. using a coupled spectrophotometric assay (0.5 ml final volume) on an Eppendorf PCP6121 photometer. The “standard” reaction medium contained 50 mM Tris-HCl (pH 7.4), 50 mM KCl, 2 mM MgCl2, 1 mM phosphoenolpyruvate, 0.2 mM NADH, 1 or 2 mM ATP, 0.5 mM GTP and 2 units each of lactate dehydrogenase, pyruvate kinase and NDP kinase. The pure preparation of UMP kinase was then added, followed by 0.3 or 1 mM UMP. The decrease in absorbance at 334 nm (between 0.03 and 0.3/min) was then recorded and corrected for secondary reactions occurring in the absence of UMP. One unit of UMP kinase corresponds to 1 μmol of product formed per min.

[2] = target: T1, UMP kinase from B. subtilis; conditions: for stabilization of UMP kinase activity on storage (in words): crude bacterial extract, UTP ≧2 mM, ATP and GTP 2 mM each, various temperatures
[3] = target: E. coli UMP kinase (Escherichia coli, UniProt P0A7E9); conditions: cited from earlier work
[4] = target: UMP kinase from H. influenzae (Haemophilus influenzae, UniProt P43890); assay: UMP kinase activity, coupled spectrophotometric assay; format: biochemical
UMP kinase from H. influenzae, sequence (P43890 whole entry): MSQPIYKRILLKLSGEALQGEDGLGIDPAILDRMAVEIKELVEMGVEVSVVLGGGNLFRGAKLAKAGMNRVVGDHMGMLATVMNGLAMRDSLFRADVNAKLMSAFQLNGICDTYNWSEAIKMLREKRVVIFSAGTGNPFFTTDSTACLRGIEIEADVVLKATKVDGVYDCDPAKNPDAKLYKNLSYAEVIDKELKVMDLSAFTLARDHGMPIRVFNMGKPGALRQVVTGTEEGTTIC
Description: The UMP kinase activity was determined at 30° C. using a coupled spectrophotometric assay (0.5 ml final volume) on an Eppendorf PCP6121 photometer. The “standard” reaction medium contained 50 mM Tris-HCl (pH 7.4), 50 mM KCl, 2 mM MgCl2, 1 mM phosphoenolpyruvate, 0.2 mM NADH, 1 or 2 mM ATP, 0.5 mM GTP and 2 units each of lactate dehydrogenase, pyruvate kinase and NDP kinase. The pure preparation of UMP kinase was then added, followed by 0.3 or 1 mM UMP. The decrease in absorbance at 334 nm (between 0.03 and 0.3/min) was then recorded and corrected for secondary reactions occurring in the absence of UMP. One unit of UMP kinase corresponds to 1 μmol of product formed per min. The specific activities of the recombinant enzymes are the following: […]

[5] = target: T2, UMP kinase from M. tuberculosis (Mycobacterium tuberculosis, UniProt P9WHK5); format: biochemical
T2 sequence (P9WHK5 whole entry): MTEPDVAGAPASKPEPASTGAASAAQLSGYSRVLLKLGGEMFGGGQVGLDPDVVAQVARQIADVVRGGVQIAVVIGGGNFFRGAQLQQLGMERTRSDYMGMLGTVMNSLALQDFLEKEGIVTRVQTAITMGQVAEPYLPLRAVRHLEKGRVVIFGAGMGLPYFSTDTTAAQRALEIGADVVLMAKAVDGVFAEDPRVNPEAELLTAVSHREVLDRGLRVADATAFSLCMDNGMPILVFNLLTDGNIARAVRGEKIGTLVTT

[6] = target: T2, UMP kinase from M. tuberculosis; conditions: in the presence of UTP
[7] = target: T1, UMP kinase from B. subtilis; assay: Thermal stability of UMP kinase (FIG. 1)
Description: UMP kinase from B. subtilis overproduced in strain BL21 (DE3)/pDIA17 (over 30% of total E. coli proteins) was recovered in the supernatant after cell breakage in 50 mM Tris-HCl (pH 7.4) and centrifugation. The activity of recombinant UMP kinase declined rapidly upon storage at either room temperature, +4° C. or under frozen state. After 24 h, only 15% of initial UMP kinase activity was recovered. EDTA, thiols, bovine serum albumin, or antiprotease compounds alone or in mixture were ineffective. […] UTP increased the thermal stability of bacterial UMP kinase (FIG. 1), the half maximal inactivation being shifted from 42° C. in the absence of UTP to over 70° C. in the presence of nucleotide.

[8] = target: T3, E. coli UMP kinase (Escherichia coli, UniProt P0A7E9); assay: UMP kinase activity and activation by guanine nucleotides (comparison enzyme); format: biochemical; conditions: under identical conditions (presence of GTP)
T3 sequence (P0A7E9 whole entry, looked up): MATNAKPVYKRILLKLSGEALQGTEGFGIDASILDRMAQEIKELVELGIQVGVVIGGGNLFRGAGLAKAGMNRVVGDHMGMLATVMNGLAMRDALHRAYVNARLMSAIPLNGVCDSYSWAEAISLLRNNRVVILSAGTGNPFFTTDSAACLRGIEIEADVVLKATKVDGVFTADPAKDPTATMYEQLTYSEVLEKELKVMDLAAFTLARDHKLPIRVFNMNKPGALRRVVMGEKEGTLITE

Nc1ncnc2c1ncn2[C@@H]1O[C@H](COP(=O)(O)OP(=O)(O)OP(=O)(O)O)[C@@H](O)[C@H]1O [ATP]
Km ([1]; ATP varied, absence or presence of GTP (0.5 mM), UMP 1 mM, read-out: apparent Km for ATP): 900 µM

O=C(O)CN(CCN(CC(=O)O)CC(=O)O)CC(=O)O [EDTA]
stabilization of UMP kinase activity on storage (in words) [2]: ineffective

Nc1nc2c(ncn2[C@@H]2O[C@H](COP(=O)(O)OP(=O)(O)NP(=O)(O)O)[C@@H](O)[C@H]2O)c(=O)[nH]1 [GMP-PNP]
activation of UMP kinase by guanine nucleotides (in words) [1]: can activate at significant rates

Nc1nc2c(ncn2[C@@H]2O[C@H](COP(=O)(O)O)[C@@H](O)[C@H]2O)c(=O)[nH]1 [GMP]
activation of E. coli UMP kinase (in words) [3]: significant activation; also recorded: activated | activation of UMP kinase by guanine nucleotides (in words) [1]: totally ineffective; also recorded: insensitive

Nc1nc2c(ncn2[C@@H]2O[C@H](COP(=O)(O)OP(=O)(O)OP(=O)(O)O)[C@@H](O)[C@H]2O)c(=O)[nH]1 [GTP]
degree of activation by GTP (factor) [4]: 3 | degree of activation by GTP (factor) [5]: 2 | activation of UMP kinase (fold) ([1]; 2 mM ATP and 1 mM UTP): ten fold activation | EC50 ([1]; 2 mM ATP and 1 mM UTP, read-out: half maximum activation concentration): 100 µM | activity of UMP kinase in the absence of GTP relative to presence ([1]; absence of GTP): twenty times lower

O=c1ccn([C@@H]2O[C@H](COP(=O)(O)O)[C@@H](O)[C@H]2O)c(=O)[nH]1 [UMP]
UMP concentration at which rates were maximal ([1]; absence of GTP, ATP 1 mM, rates decline at higher UMP): 50 to 70 µM | Km ([1]; absence of GTP, ATP constant (1 mM), read-out: Km for UMP): ~8 µM | UMP concentration at which saturation was attained ([1]; presence of GTP, ATP 1 mM): 0.2 mM

O=c1ccn([C@@H]2O[C@H](COP(=O)(O)OP(=O)(O)OP(=O)(O)O)[C@@H](O)[C@H]2O)c(=O)[nH]1 [UTP]
stabilization of UMP kinase activity on storage (in words) [2]: stabilized considerably | Tm [6]: 67 °C | half maximal inactivation temperature ([7]; in the presence of UTP): over 70 °C | effect of UTP on UMP kinase activity (in words) [1]: antagonized the effect of GTP; also recorded: inhibits | IC50 ([1]; at lower concentration of UMP (50 μM), read-out: I50 of UTP inhibition): 50 µM | Km ([1]; presence of GTP, ATP 1 mM, without inhibition by excess of UMP, read-out: apparent Km for UTP): 30 µM

Nc1nc2c(ncn2[C@@H]2O[C@@H]3COP(=O)(O)O[C@H]3[C@H]2O)c(=O)[nH]1 [cGMP]
best activator (in words) [4]: highest activation and affinity | nucleotide concentration at which maximal activation is attained [4]: 20 µM | activation of E. coli UMP kinase (in words) [3]: significant activation

Nc1ncnc2c1ncn2[C@H]1C[C@H](O)[C@@H](COP(=O)(O)OP(=O)(O)OP(=O)(O)O)O1 [dATP]
phosphate donor ability ([1]; compared with ATP): as good as ATP as phosphate donor

Nc1nc2c(ncn2[C@H]2C[C@H](O)[C@@H](COP(=O)(O)OP(=O)(O)OP(=O)(O)O)O2)c(=O)[nH]1 [dGTP]
activation of UMP kinase by guanine nucleotides (in words) [1]: effective but with lower affinities and extent of activation; also recorded: can activate at significant rates

Nc1nc2c(ncn2[C@@H]2O[C@H](CO)[C@@H](O)[C@H]2O)c(=O)[nH]1 [guanosine]
activation of E. coli UMP kinase (in words) [3]: significant activation

bovine serum albumin: protein additive tested as stabilizer
stabilization of UMP kinase activity on storage (in words) [2]: ineffective

B1: UMP kinase from E. coli: comparison enzyme, bacterial UMP kinase from E. coli (protein, UniProt P0A7E9 2-241, looked up)
Uridylate kinase: ATNAKPVYKRILLKLSGEALQGTEGFGIDASILDRMAQEIKELVELGIQVGVVIGGGNLFRGAGLAKAGMNRVVGDHMGMLATVMNGLAMRDALHRAYVNARLMSAIPLNGVCDSYSWAEAISLLRNNRVVILSAGTGNPFFTTDSAACLRGIEIEADVVLKATKVDGVFTADPAKDPTATMYEQLTYSEVLEKELKVMDLAAFTLARDHKLPIRVFNMNKPGALRRVVMGEKEGTLITE
specific activity [8]: 150 μmol/min^−1/mg of protein^−1

B2: UMP kinase from B. subtilis: recombinant pyrH gene product of B. subtilis overproduced in E. coli, hexamer (protein)
chain: T1 sequence (O31749 1-240)
initial UMP kinase activity recovered after storage ([2]; after 24 h, crude extract without UTP, room temperature, +4° C. or frozen): 15% | stability in the absence of UTP (in words) ([2]; irrespective of storage temperature (+4° C., −20° C. or −80° C.)): unstable in the absence of the nucleotide | half maximal inactivation temperature ([7]; in the absence of UTP): 42 °C | specific activity of the recombinant enzyme ([1]; 2 mM ATP, 1 mM UMP): 25 units/mg of protein | specific activity of purified recombinant protein ([1]; "standard" assay conditions): 26 U/mg of protein | specific activity of the purified enzyme ([1]; in the presence of GTP): 25 μmol/min^−1/mg of protein^−1
